Data taken from patent publication US7521461B2, “Benzoic acid derivatives as modulators of PPAR alpha and gamma” (AstraZeneca AB, priority 2002, dated 2009).

How the values were obtained:
[1] = biological target: T1, mouse PPAR gamma (Mus musculus, UniProt P37238); test: GAL4-PPAR ligand binding domain luciferase reporter transactivation assay in transiently transfected U2-OS cells; type: cell-based; details: concentration giving 50% of the maximal activation obtained by the reference compound (pioglitazone), about 24 hours exposure
T1 construct: expressed in transfected cells; host or cells: U2-OS (human osteogenic sarcoma), transient transfection by electroporation with a pSG5-based expression vector
T1 sequence (P37238 238-503 limits assumed): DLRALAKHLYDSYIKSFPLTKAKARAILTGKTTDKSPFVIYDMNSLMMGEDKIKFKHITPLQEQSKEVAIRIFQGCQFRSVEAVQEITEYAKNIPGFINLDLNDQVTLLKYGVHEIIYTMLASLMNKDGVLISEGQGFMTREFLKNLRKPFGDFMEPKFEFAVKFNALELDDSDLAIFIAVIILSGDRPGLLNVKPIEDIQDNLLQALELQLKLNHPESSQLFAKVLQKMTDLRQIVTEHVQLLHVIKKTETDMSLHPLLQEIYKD
Experimental: (§1) Compounds were dissolved in DMSO to obtain 16 mM stock solutions. Before assays, stock solutions were further diluted in DMSO and culture media
(§2) U2-OS, (Osteogenic sarcoma, Human) was purchased from ATCC, USA. Cells were expanded and refrozen in batches from passage number six. Cells were cultured in Dulbecco's modified Eagle medium (DMEM) with 25 mM glucose, 2 mM glutamine or 4 mM L-alanyl-L-glutamine, 10% fetal calf serum, at 5% CO2. Phosphate buffered saline (PBS) without addition of calcium or magnesium was used. All cell culture reagents were from Gibco (USA) and 96-well cell culture plates were purchased from Wallach.
(§3) Standard recombinant DNA techniques were carried out as described by Ausubel (7). The Luciferase reporter vector, pGL5UAS (clone consists of five copies of the GAL4 DNA binding sequence, 5′-[…]-3′, cloned into the SacI/XhoI sites of pGL3-Promoter (Promega). The SacI/XhoI fragment carrying the UAS sites was constructed using annealed overlapping oligonucleotides.
(§4) Expression vectors used are based upon pSG5 (Stratagene). All vectors contain an EcoRI/NheI fragment encoding the DNA binding domain of GALA (encoding amino acid positions 1-145 of database accession number P04386) followed by an in-frame fusion to a fragment encoding the nuclear localisation sequence from T antigen of Polyoma Virus. […]

[2] = biological target: T2, human PPAR alpha (Homo sapiens, UniProt Q07869); test: as above; type: cell-based; details: concentration giving 50% of the maximal activation obtained by the reference compound (ETYA), about 24 hours exposure
T2 construct: expressed in transfected cells; host or cells: U2-OS (human osteogenic sarcoma), transient transfection by electroporation with a pSG5-based expression vector
T2 sequence (Q07869 239-466 limits assumed): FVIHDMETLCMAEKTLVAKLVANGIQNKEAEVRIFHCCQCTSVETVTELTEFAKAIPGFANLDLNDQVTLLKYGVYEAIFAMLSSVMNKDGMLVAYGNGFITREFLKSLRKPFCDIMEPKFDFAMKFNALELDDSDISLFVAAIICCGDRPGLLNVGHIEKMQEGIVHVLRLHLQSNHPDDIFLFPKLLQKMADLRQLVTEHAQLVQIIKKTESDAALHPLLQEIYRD
Experimental: as §1, §2, §3, §4

SMILES: O=C(Cc1ccc(OCc2ccccc2C(=O)O)cc1)NCc1ccc(C(F)(F)F)cc1 [Example 2, 2-{[4-(2-Oxo-2-{[4-(trifluoromethyl)benzyl]amino}ethyl)phenoxy]methyl}benzoic acid]
- EC50 [1]: 3.05 µM
- EC50 [2]: 2.96 µM
